From patent publication US20120071322A1, “Substituted Pyridopyrazines with a Herbicidal Action” (BASF SE, priority 2009, published 2012)

How the values were obtained:
[1] = tested on: ABUTH; test: greenhouse experiment, post-emergence treatment; assay type: in vivo, Abutilon theophrasti; settings: post-emergence method, application rate 3.0 kg/ha, scale from 0 to 100
From the text: (§1) The seeds of the test plants were sown separately for each species. For the post-emergence treatment, the test plants were first grown to a height of 3 to 15 cm, depending on the plant habit, and then treated with the active compounds which had been suspended or emulsified in water. For this purpose, the test plants were either sown directly and grown in the same containers, or they were first grown separately as seedlings and transplanted into the test containers a few days prior to treatment. Depending on the species, the plants were kept at 10-25° C. or 20-35° C. The test period extended over 2 to 4 weeks. During this time, the plants were tended, and their response to the individual treatments was evaluated. Evaluation was carried out using a scale from 0 to 100. 100 means no emergence of the plants, or complete destruction of at least the aerial moieties, and 0 means no damage, or normal course of growth. A good herbicidal activity is given at values of at least 70 and a very good herbicidal activity is given at values of at least 85. [table]

[2] = tested on: SETFA; test: greenhouse experiment, post-emergence treatment; assay type: in vivo, Setaria faberi; settings: post-emergence method, application rate 3.0 kg/ha, scale from 0 to 100
From the text: as §1

[3] = tested on: AVEFA; test: greenhouse experiment, post-emergence treatment; assay type: in vivo, Avena fatua; settings: post-emergence method, application rate 3.0 kg/ha, scale from 0 to 100
From the text: as §1

[4] = tested on: SETIT; test: greenhouse experiment, pre-emergence treatment; assay type: in vivo, Setaria italica; settings: pre-emergence method, application rate 3.0 kg/ha, scale from 0 to 100
From the text: The seeds of the test plants were sown separately for each species. For the pre-emergence treatment, the active compounds, which had been suspended or emulsified in water, were applied directly after sowing by means of finely distributing nozzles. The containers were irrigated gently to promote germination and growth and subsequently covered with transparent plastic hoods until the plants had rooted. This cover caused uniform germination of the test plants, unless this has been impaired by the active compounds. Depending on the species, the plants were kept at 10-25° C. or 20-35° C. The test period extended over 2 to 4 weeks. During this time, the plants were tended, and their response to the individual treatments was evaluated. Evaluation was carried out using a scale from 0 to 100. 100 means no emergence of the plants, or complete destruction of at least the aerial moieties, and 0 means no damage, or normal course of growth. A good herbicidal activity is given at values of at least 70 and a very good herbicidal activity is given at values of at least 85. [table]

SMILES: O=c1oc2nccnc2c(O)c1-c1ccccc1C(F)(F)F [example 1, 8-Hydroxy-7-(2-trifluoromethylphenyl)pyrano[2,3-b]pyrazin-6-one]
- herbicidal activity against ABUTH [1]: good herbicidal activity (A good herbicidal activity is given at values of at least 70)
- herbicidal activity against SETFA [2]: good herbicidal activity (A good herbicidal activity is given at values of at least 70)
- herbicidal activity against AVEFA [3]: good herbicidal activity (A good herbicidal activity is given at values of at least 70)
- herbicidal activity against SETIT [4]: very good herbicidal activity (a very good herbicidal activity is given at values of at least 85)
